Test results: article PMC11748689, “Pharmacological and structural understanding of the Trypanosoma cruzi proteasome provides key insights for developing site-specific inhibitors” (The Journal of Biological Chemistry, 2024)

How the values were obtained:
[1] = target: native T. cruzi proteasome (caspase-like activity, β1) (Trypanosoma cruzi, UniProt V5BHX1); assay: Caspase-like activity assay (Proteasome-Glo), native T. cruzi proteasome; format: biochemical; settings: mean ± SD, N = 3; read-out: pIC50, Caspase Assay, Native (converted)
Protocol: Chymotrypsin-, trypsin-, and caspase-like activity assays were performed using a commercially available Proteasome-Glo 3-substrate system assay kit (catalog number G8532) (Promega Corporation) according to the manufacturers protocols and as previously described ([24]).
Prior to running assays, Proteasome-Glo buffer was used to reconstitute the luciferin detection reagent (containing a recombinant thermostable luciferase enzyme). The resuspended luciferin detection reagent was then mixed with Proteasome-Glo chymotrypsin-, trypsin- or caspase-like substrates (either 40 μM suc-Leu-Leu-Val-Tyr-aminoluciferin, 30 μM Z-Leu-Arg-Arg-aminoluciferin (Z is benzyloxycarbonyl) or 40 μM Z-Nle-Pro-Nle-Asp-aminoluciferin respectively (these concentrations represent 2x final assay concentrations)). These substrate mixtures were allowed to incubate at room temperature for 60 min prior to use to allow the removal of any contaminating free aminoluciferin.
When proteasome inhibitors were to be screened in the chymotrypsin, trypsin, and caspase assays, test compounds were dispensed into assay wells using an ECHO 550 acoustic dispenser (Labcyte) (final DMSO concentration 1%). Compounds were tested in either a 10-point concentration series (30 μM top final assay concentration, 1 in 3 dilution series) or a 12-point concentration series (30 μM top final assay concentration, 1 in 2.5 dilution series).
Proteasome assays were then performed as described above using Promega Proteasome-Glo 3-substrate system assay kit. […] Diluted proteasome (4 μl) was added to assay plates using an electronic multichannel pipette (Integra Biosciences Ltd) and the proteasome incubated with compound for 60 min at room temperature.
Following the 60 min incubation of proteasome and compounds, assays were initiated with the addition of 4 μl of a substrate mix (containing substrate and the luciferin detection reagent) using an electronic multichannel pipette. Final assay concentrations of substrates used were either 20 μM Suc-Leu-Leu-Val-Tyr-aminoluciferin, 15 μM Z-Leu-Arg-Arg-aminoluciferin, or 20 μM Z-Nle-Pro-Nle-Asp-aminoluciferin for chymotrypsin-, trypsin-, or caspase-like activity, respectively. Following a further 60 min assay incubation, luminescence was read using an EnVision 2102 Multilabel Reader (PerkinElmer, Inc) with 0.2 s per well reading time.
All data processing was performed using Microsoft Excel for Microsoft 365 software.
Nonlinear dose-response curve fitting was carried out using the Microsoft Excel add-in, XLfit (IDBS). Percentage inhibition data were either fitted to a standard 4-parameter logistic fit model (XLfit model 205; Equation 2) or a biphasic model (either XLfit model 300; Equation 3 or a custom biphasic model; Equation 4 (used in cases where the top and/or bottom parameters deviated from 100%/0% inhibition)).(2) y=A+(B−A)/1+(C/x)^D Where A = % inhibition at bottom, B = % inhibition at top, C = IC50, D = slope, x = inhibitor concentration and y = % inhibition.(3) y=(A/(1+10^(C−log(x))∗B))+((100−A)/(1+10^(D−log(x))∗B)) With A = % inhibition at midplateau, B = slope, C = log(IC50^A), D = log(IC50^B)).
All IC50 data generated were converted to pIC50 using Equation 5.

[2] = target: human proteasome (chymotrypsin activity) (Homo sapiens, UniProt P28074); assay: Human proteasome chymotrypsin activity assay; format: biochemical; settings: dose response curve, n = 2 (Fig. S7)
Protocol: Human proteasome assays were carried out as described in ([42]).

Row | Structure (SMILES) | IC50 [1] [µM] | inhibition of the human chymotrypsin activity [2]
1 | O=C(Nc1ccc(F)c(-c2cn3nc(-c4ccccc4)cnc3n2)c1)N1CCCC1 [DDD01012248] | > 30.2 | –
2 | O=C(Nc1ccc(F)c(C(=O)NC2CC2)c1)c1ccc(COc2ccccc2)o1 [DDD02091966, N-(3-(cyclopropylcarbamoyl)-4-fluorophenyl)-5-(phenoxymethyl)furan-2-carboxamide] | > 30.2 | no inhibition
